Measured values published in US20110152166A1, “METHOD OF MODULATION OF PROTEIN PHOSPHORYLATION-DEPENDENT CONFORMATIONAL TRANSITIONS WITH LOW MOLECULAR WEIGHT COMPOUNDS” (priority 2006, published 2011).
Numbering of substitutions follows the chain as printed. Ends that are not written are not given here.

Experiments:
Assay in all cases: PDK1 activity assay with T308tide
Format in all cases: biochemical
GST-PDK1 [Leu155Ser] = molecular target: T1, GST-PDK1 [Leu155Ser] (Homo sapiens, UniProt O15530, L155S); details: for AC50: GST-PDK1 [Leu155Ser]
T1 construct: different protein constructs, comprising the full length protein or the catalytic domain alone; made in house; host or cells: HEK293 cells (pEBG-2T-PDK1 mutant)
T1 sequence (O15530 1-556 L155S): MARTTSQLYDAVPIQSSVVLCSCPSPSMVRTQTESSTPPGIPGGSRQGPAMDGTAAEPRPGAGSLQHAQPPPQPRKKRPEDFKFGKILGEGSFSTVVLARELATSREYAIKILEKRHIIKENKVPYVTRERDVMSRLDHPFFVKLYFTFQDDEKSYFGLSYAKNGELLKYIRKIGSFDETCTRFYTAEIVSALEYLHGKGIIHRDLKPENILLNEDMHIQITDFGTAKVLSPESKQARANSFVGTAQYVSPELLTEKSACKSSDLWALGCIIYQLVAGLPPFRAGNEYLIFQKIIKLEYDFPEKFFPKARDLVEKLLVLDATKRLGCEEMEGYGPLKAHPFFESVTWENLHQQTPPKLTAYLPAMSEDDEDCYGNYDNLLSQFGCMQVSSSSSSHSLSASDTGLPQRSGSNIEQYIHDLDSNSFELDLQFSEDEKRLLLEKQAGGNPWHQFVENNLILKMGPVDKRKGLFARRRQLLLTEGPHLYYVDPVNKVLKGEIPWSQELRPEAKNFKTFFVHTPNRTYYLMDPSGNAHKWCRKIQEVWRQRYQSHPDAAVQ

GST-PDK1 [Val124Leu] = molecular target: T2, GST-PDK1 [Val124Leu] (Homo sapiens, UniProt O15530, V124L)
T2 construct: different protein constructs, comprising the full length protein or the catalytic domain alone; made in house; host or cells: HEK293 cells (pEBG-2T-PDK1 mutant)
T2 sequence (O15530 1-556 V124L): T1 sequence (O15530 1-556 L155S) with V124L, S155L

PDK1 50-360 = molecular target: T3, PDK1 50-360 (Homo sapiens, UniProt O15530); details: for AC50 / Max. activity: PDK1 50-360; for activation of PDK1 CD wt (in words): catalytic domain 50-360 wild type
T3 construct: the catalytic domain of PDK1 (50-359) produced in SF9 insect cells; His-tag (pFastbac-HT, TEV site) (N, cleaved yes); made in house; host or cells: Sf9 insect cells (baculovirus, pFastbac-HT)
T3 sequence (O15530 50-359): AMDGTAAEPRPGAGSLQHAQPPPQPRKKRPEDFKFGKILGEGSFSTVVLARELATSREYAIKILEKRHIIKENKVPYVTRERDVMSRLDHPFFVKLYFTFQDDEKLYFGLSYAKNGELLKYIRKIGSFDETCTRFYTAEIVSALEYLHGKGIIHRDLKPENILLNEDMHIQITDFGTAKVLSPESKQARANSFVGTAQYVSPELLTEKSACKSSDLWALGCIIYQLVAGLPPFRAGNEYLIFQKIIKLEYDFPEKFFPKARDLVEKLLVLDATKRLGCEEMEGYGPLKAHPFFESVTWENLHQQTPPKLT

Row | Compound | AC50 (GST-PDK1 [Leu155Ser]) | activation of PDK1 mutant (in words) (GST-PDK1 [Leu155Ser]; Leu155 replaced with Ser, constitutively active) | AC50 (GST-PDK1 [Val124Leu]) | Max. activity (GST-PDK1 [Val124Leu]) | AC50 (PDK1 50-360) | Max. activity (PDK1 50-360) | activation of PDK1 CD wt (in words) (PDK1 50-360)
1 | O=C(O)CSC(CC(=O)c1ccc(Cl)cc1)c1ccccc1 (stereo not shown) [Compound 1] | No Effect | could not be further activated | 180 ± 60 µM | 1.1 ± 0.13 U/mg | 38 ± 8 µM | 3.46 ± 0.19 U/mg | activated
2 | REPRILSEEEQEMFRDFDYIADWC [PIFtide, reference compound] | No Effect |  | 0.35 ± 0.2 µM | 0.59 ± 0.04 U/mg | 0.17 ± 0.09 µM | 2.62 ± 0.18 U/mg | activated
